This is an account of results in ChEMBL document CHEMBL1821689, “1,6-Disubstituted indole derivatives as selective human neuronal nitric oxide synthase inhibitors” (Bioorg Med Chem Lett, 2011).

Assay [1] concerns the target Nitric oxide synthase, inducible (Homo sapiens, UniProt P35228). The assay can be described thus: Inhibition of recombinant human iNOS expressed in baculovirus infected insect Sf9 cells assessed as conversion of [3H]-L-arginine into [3H]-L-citrulline by radiometric method.
Another assay deals with T1, Nitric oxide synthase 3 (Homo sapiens, UniProt P29474).
T1 sequence (P29474 whole entry): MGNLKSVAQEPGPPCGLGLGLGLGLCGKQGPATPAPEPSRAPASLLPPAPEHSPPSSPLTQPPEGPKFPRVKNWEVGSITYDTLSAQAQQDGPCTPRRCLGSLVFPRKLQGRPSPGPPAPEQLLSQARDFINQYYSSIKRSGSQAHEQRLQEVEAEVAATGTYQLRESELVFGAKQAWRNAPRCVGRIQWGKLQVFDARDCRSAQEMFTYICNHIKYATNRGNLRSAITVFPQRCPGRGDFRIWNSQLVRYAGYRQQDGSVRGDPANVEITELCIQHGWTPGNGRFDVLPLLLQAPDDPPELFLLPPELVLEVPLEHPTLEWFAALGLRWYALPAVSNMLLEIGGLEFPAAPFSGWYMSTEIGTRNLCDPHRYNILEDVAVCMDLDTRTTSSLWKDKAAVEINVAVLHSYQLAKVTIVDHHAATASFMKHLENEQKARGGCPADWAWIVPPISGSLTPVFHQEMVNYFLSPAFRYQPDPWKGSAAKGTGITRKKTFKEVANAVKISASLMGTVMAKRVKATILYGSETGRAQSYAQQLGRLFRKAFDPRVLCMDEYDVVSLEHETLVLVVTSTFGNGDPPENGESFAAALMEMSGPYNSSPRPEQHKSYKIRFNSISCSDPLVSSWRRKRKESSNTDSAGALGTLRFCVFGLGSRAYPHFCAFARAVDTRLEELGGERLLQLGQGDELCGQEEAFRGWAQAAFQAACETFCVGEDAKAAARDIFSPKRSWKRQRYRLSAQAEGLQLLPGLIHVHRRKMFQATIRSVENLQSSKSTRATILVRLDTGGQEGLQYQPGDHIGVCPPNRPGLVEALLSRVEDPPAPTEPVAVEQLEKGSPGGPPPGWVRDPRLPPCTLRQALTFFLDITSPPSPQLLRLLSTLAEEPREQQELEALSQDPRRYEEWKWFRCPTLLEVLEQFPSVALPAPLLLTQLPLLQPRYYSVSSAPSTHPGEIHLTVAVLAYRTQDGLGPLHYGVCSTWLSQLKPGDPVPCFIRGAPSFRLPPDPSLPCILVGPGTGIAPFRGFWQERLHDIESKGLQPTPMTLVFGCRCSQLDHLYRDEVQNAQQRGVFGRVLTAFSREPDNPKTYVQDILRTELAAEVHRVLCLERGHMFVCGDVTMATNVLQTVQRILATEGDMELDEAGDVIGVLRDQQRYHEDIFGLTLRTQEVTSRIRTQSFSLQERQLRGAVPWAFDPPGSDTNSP
The assay can be described thus: Inhibition of recombinant human eNOS expressed in baculovirus infected insect Sf9 cells assessed as conversion of [3H]-L-arginine into [3H]-L-citrulline by radiometric method.

A further assay concerns the target Nitric oxide synthase 1 (Homo sapiens, UniProt P29475). The assay can be described thus: Inhibition of recombinant human nNOS expressed in baculovirus infected insect Sf9 cells assessed as conversion of [3H]-L-arginine into [3H]-L-citrulline by radiometric method.
For another assay, the species on record is Homo sapiens. As to the kind of experiment: Selectivity ratio of IC50 for recombinant human eNOS to IC50 for recombinant human nNOS.
For assay [2], the target named is Nitric oxide sythases; iNOS & nNOS (Homo sapiens) (UniProt P29475+P35228). The assay can be described thus: Selectivity ratio of IC50 for recombinant human iNOS to IC50 for recombinant human nNOS.
Nitric oxide sythases; iNOS & nNOS (Homo sapiens), sequence (P29475 whole entry, looked up): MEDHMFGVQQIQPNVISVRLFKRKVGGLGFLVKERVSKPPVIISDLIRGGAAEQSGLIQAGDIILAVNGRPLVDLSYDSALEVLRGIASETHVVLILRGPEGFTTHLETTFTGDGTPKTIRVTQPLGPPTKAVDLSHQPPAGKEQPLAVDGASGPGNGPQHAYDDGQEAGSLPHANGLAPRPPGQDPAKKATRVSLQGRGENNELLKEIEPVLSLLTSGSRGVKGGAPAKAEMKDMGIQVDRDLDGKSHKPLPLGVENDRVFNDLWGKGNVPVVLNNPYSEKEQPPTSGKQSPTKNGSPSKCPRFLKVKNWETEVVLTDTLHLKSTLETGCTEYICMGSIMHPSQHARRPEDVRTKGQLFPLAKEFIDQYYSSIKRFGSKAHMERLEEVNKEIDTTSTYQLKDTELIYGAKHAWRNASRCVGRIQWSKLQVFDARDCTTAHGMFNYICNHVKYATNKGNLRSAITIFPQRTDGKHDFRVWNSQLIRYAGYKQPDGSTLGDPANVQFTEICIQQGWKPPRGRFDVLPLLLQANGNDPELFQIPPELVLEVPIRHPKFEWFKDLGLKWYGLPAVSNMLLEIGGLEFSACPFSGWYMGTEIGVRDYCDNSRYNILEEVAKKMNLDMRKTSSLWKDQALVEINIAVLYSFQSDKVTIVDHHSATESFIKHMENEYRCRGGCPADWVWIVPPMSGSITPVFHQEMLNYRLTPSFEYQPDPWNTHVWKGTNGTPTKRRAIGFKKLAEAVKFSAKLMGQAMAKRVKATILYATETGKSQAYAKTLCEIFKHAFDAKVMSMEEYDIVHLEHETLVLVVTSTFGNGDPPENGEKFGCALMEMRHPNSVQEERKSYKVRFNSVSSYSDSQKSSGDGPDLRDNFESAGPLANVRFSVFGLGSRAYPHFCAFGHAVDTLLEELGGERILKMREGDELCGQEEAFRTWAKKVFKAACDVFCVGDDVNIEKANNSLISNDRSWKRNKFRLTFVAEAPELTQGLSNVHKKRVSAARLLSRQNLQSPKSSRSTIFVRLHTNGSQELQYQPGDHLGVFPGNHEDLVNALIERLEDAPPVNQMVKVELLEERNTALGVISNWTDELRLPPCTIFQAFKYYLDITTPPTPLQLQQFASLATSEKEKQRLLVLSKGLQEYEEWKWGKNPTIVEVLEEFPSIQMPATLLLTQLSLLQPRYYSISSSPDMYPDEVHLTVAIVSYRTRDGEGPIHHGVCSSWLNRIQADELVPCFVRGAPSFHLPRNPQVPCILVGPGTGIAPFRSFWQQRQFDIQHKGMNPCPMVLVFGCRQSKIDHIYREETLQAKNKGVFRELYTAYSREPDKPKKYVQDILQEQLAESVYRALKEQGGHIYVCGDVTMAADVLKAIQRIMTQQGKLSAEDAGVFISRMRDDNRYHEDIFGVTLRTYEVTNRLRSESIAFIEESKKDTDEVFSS
Nitric oxide sythases; iNOS & nNOS (Homo sapiens), sequence (P35228 whole entry, looked up): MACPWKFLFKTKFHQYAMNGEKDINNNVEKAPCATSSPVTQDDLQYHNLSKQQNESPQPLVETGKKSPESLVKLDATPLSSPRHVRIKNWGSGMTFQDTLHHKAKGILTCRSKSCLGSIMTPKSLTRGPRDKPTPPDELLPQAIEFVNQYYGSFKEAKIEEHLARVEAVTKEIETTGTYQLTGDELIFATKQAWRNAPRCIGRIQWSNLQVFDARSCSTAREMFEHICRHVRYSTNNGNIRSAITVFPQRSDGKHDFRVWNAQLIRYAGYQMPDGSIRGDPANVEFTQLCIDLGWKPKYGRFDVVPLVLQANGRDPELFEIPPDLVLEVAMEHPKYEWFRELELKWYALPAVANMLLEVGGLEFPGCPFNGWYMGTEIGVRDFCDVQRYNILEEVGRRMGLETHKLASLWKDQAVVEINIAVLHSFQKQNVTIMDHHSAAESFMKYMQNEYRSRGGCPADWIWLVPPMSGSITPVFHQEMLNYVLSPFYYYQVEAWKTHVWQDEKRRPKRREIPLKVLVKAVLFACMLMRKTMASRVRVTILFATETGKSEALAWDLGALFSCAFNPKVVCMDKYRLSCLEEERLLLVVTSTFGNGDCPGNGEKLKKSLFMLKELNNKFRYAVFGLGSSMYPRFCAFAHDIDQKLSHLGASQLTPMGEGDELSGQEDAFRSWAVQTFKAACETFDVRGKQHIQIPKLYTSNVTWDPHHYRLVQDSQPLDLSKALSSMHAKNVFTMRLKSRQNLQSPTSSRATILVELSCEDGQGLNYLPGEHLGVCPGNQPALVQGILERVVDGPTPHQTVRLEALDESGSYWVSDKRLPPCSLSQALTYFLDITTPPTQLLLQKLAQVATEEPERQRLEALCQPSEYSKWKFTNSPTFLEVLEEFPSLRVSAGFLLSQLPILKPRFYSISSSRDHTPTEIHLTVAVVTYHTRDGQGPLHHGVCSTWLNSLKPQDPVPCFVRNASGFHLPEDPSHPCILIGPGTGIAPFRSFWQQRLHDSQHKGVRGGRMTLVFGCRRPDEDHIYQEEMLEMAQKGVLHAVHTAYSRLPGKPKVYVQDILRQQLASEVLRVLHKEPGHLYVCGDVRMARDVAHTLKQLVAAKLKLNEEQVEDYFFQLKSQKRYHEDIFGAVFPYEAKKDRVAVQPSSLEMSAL
The subject of assay [3] is Rattus norvegicus. The assay can be described thus: Antiallodynic activity in Sprague-Dawley rat model of migraine pain assessed as attenuation of cutaneous allodynia in the hind-paws at 30 mg/kg, po administered 15 mins prior to application of inflammatory soup measured between 2 to 6 hrs. It is filed as functional, organism-based. More on the design: dose 30 mg/kg.
Assay [4] deals with Rattus norvegicus. As to the kind of experiment: Antiallodynic activity in Sprague-Dawley rat model of migraine pain assessed as attenuation of cutaneous allodynia in the hind-paws at 30 mg/kg, po administered 15 mins prior to application of inflammatory soup measured at 4 hrs. More on the design: dose 30 mg/kg. It is filed as functional, organism-based.

pIC50: −log10 of the molar value. Activity calls are given as the source filed them. No cut-off for these calls is given here.

Nitric oxide synthase 1, sequence (P29475 whole entry): as the sequence (P29475 whole entry, looked up) above
Nitric oxide synthase, inducible, sequence (P35228 whole entry): as the sequence (P35228 whole entry, looked up) above

On to `CN(C)CCn1ccc2ccc(N=C(N)c3cccs3)cc21`, for which, in assay [1], the negative-log IC50 (pIC50) was 4.22.

Consider `CN1CCCC1CCn1ccc2ccc(NC(=N)c3cccs3)cc21` (racemic), for which the pIC50 at Nitric oxide synthase 3 was 4.72; in assay [1], 4.17; at Nitric oxide synthase 1 it was 6.66.

On to `N=C(Nc1ccc2ccn(CCCN3CCOCC3)c2c1)c1ccoc1`, for which, in assay [1], the pIC50 is < 4.00.

`N/C(=N\c1ccc2ccn(CCN3CCCCC3)c2c1)c1cccs1`: the Ratio IC50 in the assay listed under Homo sapiens came out at 8; in assay [2], 43.

Turning to `CN1CCC[C@H]1CCn1ccc2ccc(/N=C(\N)c3cccs3)cc21`, the pIC50 in assay [1] is 4.14. The Ratio IC50 in the assay listed under Homo sapiens worked out at 120; in assay [2], 360.

As to `CN1CCCC1CCn1ccc2ccc(/N=C(\N)c3cccs3)cc21` (racemic), the results for the Ratio IC50 (in the assay filed under Homo sapiens; in assay [2]) were 86 and 309, respectively.

Consider `CN(C)CCCn1ccc2ccc(NC(=N)c3cccs3)cc21`, for which the negative logarithm of the IC50 (pIC50) on Nitric oxide synthase 3 was 4.63.

Take `CCN(CC)CCCn1ccc2ccc(/N=C(\N)c3cccs3)cc21`: in the assay listed under Homo sapiens, the Ratio IC50 is 68.

As to `CN(C)CCCCn1ccc2ccc(NC(=N)c3cccs3)cc21`, the pIC50 on Nitric oxide synthase 3 is 5.60; in assay [1] it was 4.18; at Nitric oxide synthase 1 it was 6.59.

`N/C(=N\c1ccc2ccn(CCCN3CCOCC3)c2c1)c1ccsc1`: the Ratio IC50 in the assay listed under Homo sapiens was found to be 12.1; in assay [2], 50.

As to `N/C(=N\c1ccc2ccn(CCCN3CCCC3)c2c1)c1cccs1`, in the assay listed under Homo sapiens, the Ratio IC50 was determined as 25.

Take `N=C(Nc1ccc2ccn(CCN3CCCCC3)c2c1)c1cccs1`: in assay [1], the negative logarithm of the IC50 (pIC50) is 4.68.

Turning to `N=C(Nc1ccc2ccn(CCCN3CCOCC3)c2c1)c1ccsc1`, the pIC50 in assay [1] is 4.15.

For the molecule `CN1CCCC(n2ccc3ccc(/N=C(\N)c4cccs4)cc32)CC1` (stereo not drawn), the Ratio IC50 in the assay filed under Homo sapiens was 43.

Take `N=C(Nc1ccc2ccn(CCCCn3ccnc3)c2c1)c1cccs1`: the negative-log IC50 (pIC50) on Nitric oxide synthase 3 is 4.64; in assay [1] it was < 4.00.

In the case of `N/C(=N\c1ccc2ccn(CCCCn3ccnc3)c2c1)c1cccs1`, the Ratio IC50 in the assay filed under Homo sapiens amounted to 19.

For `N/C(=N\c1ccc2ccn(CCCN3CCOCC3)c2c1)c1ccoc1`, the Ratio IC50 in the assay listed under Homo sapiens is 19.

As for `N=C(Nc1ccc2ccn(CCCN3CCCC3)c2c1)c1cccs1`, the pIC50 on Nitric oxide synthase 3 is 4.95; at Nitric oxide synthase 1 it was 6.35.

As for `N=C(Nc1ccc2ccn(CCCN3CCOCC3)c2c1)c1ccco1`, the pIC50 in assay [1] is 4.44.

Take `CN(C)CCCCn1ccc2ccc(/N=C(\N)c3cccs3)cc21`: the Ratio IC50 in the assay filed under Homo sapiens is 10; in assay [2] it was 254.

In the case of `CNCCCn1ccc2ccc(/N=C(\N)c3cccs3)cc21`, the Ratio IC50 in the assay filed under Homo sapiens stood at 6.

Take `CNCCCn1ccc2ccc(NC(=N)c3cccs3)cc21`: the pIC50 at Nitric oxide synthase 3 is 4.93.

In the case of `CN1CCC[C@@H]1CCn1ccc2ccc(/N=C(\N)c3cccs3)cc21`, the pIC50 in assay [1] was 4.14. Further, the Ratio IC50 was found to be 50 in the assay filed under Homo sapiens and 225 in assay [2]. Also, the result with Rattus norvegicus [3] and with Rattus norvegicus [4] was Active.

`CN1CCCC(n2ccc3ccc(NC(=N)c4ccco4)cc32)CC1` (stereo not drawn): the pIC50 is 4.51 on Nitric oxide synthase 3, 5.92 in assay [1] and 6.28 at Nitric oxide synthase 1. Moreover, the values for the Ratio IC50 (in the assay listed under Homo sapiens; in assay [2]) were 59 and 2, respectively.

For `N/C(=N\c1ccc2ccn(CCCN3CCOCC3)c2c1)c1cccs1`, the Ratio IC50 in the assay listed under Homo sapiens worked out at 40; in assay [2], 117.

`CN1CCCC(n2ccc3ccc(NC(=N)c4cccs4)cc32)CC1` (stereo not drawn): the pIC50 on Nitric oxide synthase 3 was 4.42.

With `N=C(Nc1ccc2ccn(CCCN3CCOCC3)c2c1)c1cccs1`, the pIC50 on Nitric oxide synthase 3 was 4.55; in assay [1] it was 4.09; on Nitric oxide synthase 1, 6.15.

As to `N/C(=N\c1ccc2ccn(CCCN3CCOCC3)c2c1)c1ccco1`, the Ratio IC50 in the assay listed under Homo sapiens came out at 14; in assay [2] it was 15.

Take `CCN(CC)CCCn1ccc2ccc(NC(=N)c3cccs3)cc21`: on Nitric oxide synthase 1, the pIC50 was 6.82.

The term pIC50 denotes the negative decadic logarithm of the IC50, by convention in mol/L.
